According to US8044204B2, “8-methoxy-9H-isothiazolo[5,4-b]quinoline-3,4-diones and related compounds as anti-infective agents” (Achillion Pharmaceuticals, Inc., priority 2005, dated 2011):
Where a name gives a salt, the structure may show the parent alone.

Key:
Type in all cases: cell-based
E. coli ATCC 25922 = experiment: Minimum Inhibitory Concentration (MIC) assay, E. coli; conditions: Escherichia coli, ATCC25922; broth microdilution; read-out: MIC against E. coli
Description: (§1) The antimicrobial activity of the compounds of the invention may be evaluated by a number of methods, including the following visual minimum inhibitory concentration (MIC) assay. This assay determines the minimum concentration of compound required to inhibit growth of a bacterial strain.
(§2) Minimum Inhibitory Concentration (MIC) Assay
(§3) Whole-cell antibacterial activity is determined by broth microdilution using conditions recommended by the NCCLS (see National Committee for Clinical Laboratory Standards. 2001. Performance standards for antimicrobial susceptibility testing: 11th informational supplement. Vol. 21, no. 1, M100-S11. National Committee for Clinical Laboratory Standards, Wayne, Pa.). Test compounds are dissolved in DMSO and diluted 1:50 in Mueller-Hinton II broth (Becton-Dickinson) to produce a 256 μg/ml stock solution. In a 96-well microtiter plate, the compound solution is serially two-fold diluted in Mueller-Hinton II broth. After the compounds are diluted, a 50 μl aliquot of the test organism (˜1×10^6 cfu/mL) is added to each well of the microtiter plate. The final test concentrations ranges from 0.125-128 μg/mL. Inoculated plates are incubated in ambient air at 37° C. for 18 to 24 hours. The organisms selected for testing included laboratory strains S. aureus ATCC 29213 and E. coli ATCC 25922 (strains purchased from American Type Culture Collection, Manassas, Va.), S. aureus FQR700699, and Paeruginosa 27853. The minimum inhibitory concentration (MIC) is determined as the lowest concentration of compound that inhibited visible growth of the test organism.

MRSA strain ATCC 700699 = experiment: Minimum Inhibitory Concentration (MIC) assay, Methicillin Resistant S. Aureus; conditions: Staphylococcus aureus; broth microdilution; read-out: MIC against Methicillin Resistant S. Aureus
Source text: It has been unexpectedly discovered that substitution of compounds of Formula I and Formula II with a methoxy substituent at the R8 position increases the anti-microbial activity of the compound against Methicillin resistant Staphylococcus Aureus bacteria while at the same time decreasing the cellular toxicity of the compound. The simultaneous increase in compound activity and decrease in compound toxicity provides a greater therapeutic range for compounds of Formula I and Formula II in which R8 is methoxy; i.e. the range of doses of such compounds that will produce beneficial effects without harmful side effects is increased. […] Therapeutic range is determined using a standard assay of cytotoxicity such as the Alamar blue assay provided in Example 10.
as §1, §2, §3

S. aureus ATCC 29213 = experiment: Minimum Inhibitory Concentration (MIC) assay, S. aureus; conditions: Staphylococcus aureus, ATCC29213; broth microdilution; read-out: MIC against S. Aureus
Description: as §1, §2, §3

| MIC (E. coli ATCC 25922) [µg/mL] | MIC (MRSA strain ATCC 700699) [µg/mL] | MIC (S. aureus ATCC 29213) [µg/mL] | Compound |
| --- | --- | --- | --- |
| ≤ 1 | ≤ 1 | ≤ 1 | COc1c(N(C)C)c(F)cc2c(=O)c3c(=O)[nH]sc3n(C3CC3)c12 [Compound 42, 9-cyclopropyl-7-(dimethyl-amino)-6-fluoro-8-methoxyiso-thiazolo[5,4-b]quinoline-3,4(2H,9H)-dione] |
| ≤ 1 | ≤ 1 | ≤ 1 | COc1c(N2CCC(C(C)(C)N)C2)c(F)cc2c(=O)c3c(=O)[nH]sc3n(C3CC3)c12 (stereo not drawn) [Compound 57, 7-(3-(2-aminopropan-2-yl)pyrrolidin-1-yl)-9-cyclopropyl-6-fluoro-8-methoxyiso-thiazolo[5,4-b]quinoline-3,4(2H,9H)-dione] |
| ≤ 1 | ≤ 1 | ≤ 1 | [2H]C1([2H])CC(C(C)(C)N)C([2H])([2H])N1c1c(F)cc2c(=O)c3c(=O)[nH]sc3n(C3CC3)c2c1OC (stereo not drawn) [Compound 71, 7-(3-(2-amino-propan-2-yl)-2,2,5,5-tetradeuterated-pyrrolidin-1-yl)-9-cyclopropyl-6-fluoro-8-methoxyiso-thiazolo[5,4-b]quinoline-3,4(2H,9H)-dione] |
| ≤ 1 | ≤ 1 | ≤ 1 | COc1c(N2CC[C@@H](C(C)N)C2)c(F)cc2c(=O)c3c(=O)[nH]sc3n(C3CC3)c12 (stereo partly drawn) [Compound 73, (R)-7-(3-(1-aminoethyl)pyrrolidin-1-yl)-9-cyclopropyl-6-fluoro-8-methoxyiso-thiazolo[5,4-b]quinoline-3,4(2H,9H)-dione] |
| ≤ 1 | ≤ 1 | ≤ 1 | CNC(C)[C@@H]1CCN(c2c(F)cc3c(=O)c4c(=O)[nH]sc4n(C4CC4)c3c2OC)C1 (stereo partly drawn) [Compound 74, (R)-9-cyclopropyl-6-fluoro-8-methoxy-7-(3-(1-(methyl-amino)ethyl)-pyrrolidin-1-yl)isothia-zolo[5,4-b]quinoline-3,4(2H,9H)-dione] |
| ≤ 1 | ≤ 1 | ≤ 1 | CC(C)(N)C1CCN(c2c(F)cc3c(=O)c4c(=O)[nH]sc4n(C4CC4)c3c2F)C1 (stereo not drawn) [Compound 75, 7-(3-(2-amino-propan-2-yl)pyrrolidin-1-yl)-9-cyclo-propyl-6,8-difluoroiso-thiazolo[5,4-b]quinoline-3,4(2H,9H)-dione] |
| ≤ 1 | ≤ 1 | ≤ 1 | CCNC(C)[C@@H]1CCN(c2c(F)cc3c(=O)c4c(=O)[nH]sc4n(C4CC4)c3c2OC)C1 (stereo partly drawn) [Compound 77, (R)-9-cyclo-propyl-7-(3-(1-(ethyl-amino)ethyl)pyrrolidin-1-yl)-6-fluoro-8-methoxyiso-thiazolo[5,4-b]quinoline-3,4(2H,9H)-dione] |
| ≤ 1 | ≤ 1 | ≤ 1 | CNC[C@@H]1CCN(c2c(F)cc3c(=O)c4c(=O)[nH]sc4n(C4CC4)c3c2OC)C1 [Compound 87, (S)-9-cyclo-propyl-6-fluoro-8-methoxy-7-(3-((methylamino)-methyl)pyrrolidin-1-yl)isothia-zolo[5,4-b]quinoline-3,4(2H,9H)-dione] |
| ≤ 1 | ≤ 1 | ≤ 1 | COc1c(N2CC[C@@H](CNC3CC3)C2)c(F)cc2c(=O)c3c(=O)[nH]sc3n(C3CC3)c12 [Compound 88, (S)-9-cyclo-propyl-7-(3-((cyclopropyl-amino)-methyl)-pyrrolidin-1-yl)-6-fluoro-8-methoxyiso-thiazolo[5,4-b]quinoline-3,4(2H,9H)-dione] |
| ≤ 1 | ≤ 1 | ≤ 1 | CCNC(C)(C)[C@@H]1CCN(c2c(F)cc3c(=O)c4c(=O)[nH]sc4n(C4CC4)c3c2OC)C1 [Compound 89, (R)-9-cyclo-propyl-7-(3-(2-(ethyl-amino)propan-2-yl)pyrrolidin-1-yl)-6-fluoro-8-methoxyiso-thiazolo[5,4-b]quinoline-3,4(2H,9H)-dione] |
| ≤ 1 | ≤ 1 | ≤ 1 | COc1c(N2CC[C@@H](C(C)NC3CC3)C2)c(F)cc2c(=O)c3c(=O)[nH]sc3n(C3CC3)c12 (stereo partly drawn) [Compound 93, (R)-9-cyclo-propyl-7-(3-(1-(cyclo-propylamino)ethyl)-pyrrolidin-1-yl)-6-fluoro-8-methoxyiso-thiazolo[5,4-b]quinoline-3,4(2H,9H)-dione] |
| ≤ 1 | ≤ 1 | ≤ 1 | COc1c(N2CC[C@H](C(C)NC3CC3)C2)c(F)cc2c(=O)c3c(=O)[nH]sc3n(C3CC3)c12 (stereo partly drawn) [Compound 94, (S)-9-cyclo-propyl-7-(3-(1-(cyclo-propylamino)ethyl)-pyrrolidin-1-yl)-6-fluoro-8-methoxyiso-thiazolo[5,4-b]quinoline-3,4(2H,9H)-dione] |
| ≤ 1 | ≤ 1 | ≤ 1 | COc1c(N2CC(C)C(CN)C2)c(F)cc2c(=O)c3c(=O)[nH]sc3n(C3CC3)c12 (stereo not drawn) [Compound 95, 7-(3-(amino-methyl)-4-methyl-pyrrolidin-1-yl)-9-cyclopropyl-6-fluoro-8-methoxyiso-thiazolo[5,4-b]quinoline-3,4(2H,9H)-dione] |
| ≤ 1 | ≤ 1 | ≤ 1 | COc1c(N2CC(C)C(C#N)C2)c(F)cc2c(=O)c3c(=O)[nH]sc3n(C3CC3)c12 (stereo not drawn) [Compound 100, 1-(9-cyclo-propyl-6-fluoro-8-methoxy-3,4-dioxo-2,3,4,9-tetrahydroisothia-zolo[5,4-b]quinolin-7-yl)-4-methyl-pyrrolidine-3-carbonitrile] |
| ≤ 1 | ≤ 1 | ≤ 1 | COc1c(N2CC[C@@H](C(C)N)C2)ccc2c(=O)c3c(=O)[nH]sc3n(C3CC3)c12 (stereo partly drawn) [Compound 102, (R)-7-(3-(1-aminoethyl)-pyrrolidin-1-yl)-9-cyclopropyl-8-methoxyiso-thiazolo[5,4-b]quinoline-3,4(2H,9H)-dione] |
| ≤ 1 | ≤ 1 | ≤ 1 | CNC(C)[C@@H]1CCN(c2ccc3c(=O)c4c(=O)[nH]sc4n(C4CC4)c3c2OC)C1 (stereo partly drawn) [Compound 103, (R)-9-cyclo-propyl-8-methoxy-7-(3-(1-(methylamino)-ethyl)pyrrolidin-1-yl)isothia-zolo[5,4-b]quinoline-3,4(2H,9H)-dione] |
|  | ≤ 1 | ≤ 1 | CN[C@@H](C)[C@@H]1CCN(c2c(F)cc3c(=O)c4c(=O)[nH]sc4n(C4CC4)c3c2OC)C1 [Compound 108, 9-cyclopropyl-6-fluoro-8-methoxy-7-((R)-3-((S)-1-(methylamino)-ethyl)pyrrolidin-1-yl)isothia-zolo[5,4-b]quinoline-3,4(2H,9H)-dione] |
|  | ≤ 1 | ≤ 1 | COc1c(N2CC[C@@H]([C@H](C)N)C2)ccc2c(=O)c3c(=O)[nH]sc3n(C3CC3)c12 [Compound 111, 7-((R)-3-((S)-1-aminoethyl)-pyrrolidin-1-yl)-9-cyclo-propyl-8-methoxyiso-thiazolo[5,4-b]quinoline-3,4(2H,9H)-dione] |
|  | ≤ 1 | ≤ 1 | COc1c(N2CC[C@@H](C(C)NC(C)C)C2)c(F)cc2c(=O)c3c(=O)[nH]sc3n(C3CC3)c12 (stereo partly drawn) [Compound 112, (R)-9-cyclo-propyl-6-fluoro-7-(3-(1-(isopropyl-amino)ethyl)pyrrolidin-1-yl)-8-methoxyiso-thiazolo[5,4-b]quinoline-3,4(2H,9H)-dione] |

| Compound | MIC (E. coli ATCC 25922) [µg/mL] | MIC (MRSA strain ATCC 700699) [µg/mL] | MIC (S. aureus ATCC 29213) [µg/mL] |
| --- | --- | --- | --- |
| COc1c(N2CC[C@@H](C(C)(C)N)C2)ccc2c(=O)c3c(=O)[nH]sc3n(C3CC3)c12 [Compound 54, (R)-7-(3-(2-aminopropan-2-yl)pyrrolidin-1-yl)-9-cyclopropyl-8-methoxyiso-thiazolo[5,4-b]quinoline-3,4(2H,9H)-dione, hydrochloride] | ≤ 1 | ≤ 1 | ≤ 1 |
| COc1c(N2CC[C@@H](C3(N)CC3)C2)c(F)cc2c(=O)c3c(=O)[nH]sc3n(C3CC3)c12 [Compound 55, (R)-7-(3-(1-amino-cyclopropyl)pyrrolidin-1-yl)-9-cyclopropyl-6-fluoro-8-methoxyiso-thiazolo[5,4-b]quinoline-3,4(2H,9H)-dione, hydrochloride] | ≤ 1 | ≤ 1 | ≤ 1 |
| COc1c(N2CC[C@@H](C3(N)CC3)C2)ccc2c(=O)c3c(=O)[nH]sc3n(C3CC3)c12 [Compound 56, (R)-7-(3-(1-aminocyclo-propyl)pyrrolidin-1-yl)-9-cyclopropyl-8-methoxy-isothia-zolo[5,4-b]quinoline-3,4(2H,9H)-dione, hydrochloride] | ≤ 1 | ≤ 1 | ≤ 1 |
